Results from patent US9192667B2, “Method of treating cancer by administering CSF-1R antibodies and a TLR9 agonist” (Hoffmann-La Roche Inc., priority 2013, dated 2015).

Tests used:
[1] = tested on: MC38 mouse CRC in vivo model; experiment: Tumor growth inhibition in subcutaneous syngeneic MC38 colon carcinoma model; details: antibody 30 mg/kg i.p. weekly, CpG ODN 1826 100 μg peritumoral 1×; for TGI (day 24): versus control antibody
Text: Additionally to the assessment of median tumor volume after 2 weeks of treatment the progression of individual tumors in the study was followed until progression ≧700 mm3 (FIG. 1 (CpG is TLR9 agonist CpG ODN 1826) and Table 11)

[2] = SCID mouse; cited from earlier work
[3] = phase 1/1 I clinical study; cited from earlier work
lymphoma = details: phase 1/1 I clinical study; cited from earlier work

## CpG ODN 1826
[1]
  Median time to progression TV > 700 mm3: 24 days
  TCR (day 24): 0.28
  TGI (day 24): 74%
[1]; listed as TLR9 agonist (CpG)
  TGI (day 24): 73%

## CpG-685: synthetic, 21-mer fully phosphorothioated CpG ODN 5′-tcgtcgacgtcgttcgttctc-3′ (SEQ ID NO: 93), SBI Biotech (DNA TCGTCGACGTCGTTCGTTCTC; DNA, all phosphorothioate, methylation of C not given here)
[2]
  antitumor effects: showed antitumor effects

## d(P-Thio)(TCGTCGTTTTGTCGTTTTGTCGTT)DNA [CpG-7909]
[3]
  tolerability: well tolerated
lymphoma
  antilymphoma activity: antilymphoma activity
